Data on seven compounds can be found in patent publication US4636569A, “Pharmaceutical compositions containing compounds with a flavanone skeleton, process for the preparation of the said compound and novel compounds obtained” (Inverni Della Beffa S.p.A., priority 1983, dated 1987).

For series [1], the system named is bile flow and excretion of cholate. The experiment in a line: Choleretic activity in rats. It is filed as in vivo. Particulars: dose 200 (unit not given); for Bile flow: n=10, controls 2.72 ± 0.11, ** P < 0.01, *** P < 0.001; for Total cholate: n=10, controls 11.64 ± 0.19, ** P < 0.01. The source says: The choleretic activity, compared to that of catechol, has been determined in rats by measuring both the bile flow and the excretion of cholate (cholic acid).

Series [2] relates to olive oil induced hyperlipaemia. The experiment in a line: Hypolipaemic activity in rats (olive oil induced hyperlipaemia). It is filed as in vivo. Conditions: for Triglycerides / NEFA: n=6, m ± ES; for Triglycerides: controls 252 ± 18; for NEFA: controls 1017 ± 39. The protocol:
The hypolipaemia-producing activity was evaluated in other tests in which the variations in cholesterol, triglycerides, NEFA (non-esterified fatty acids) and various lipoprotein fractions were determined.
In Table 3 there is reported the effect of 6,8-dimethyl-5,7,4'-trihydroxyflavanone and of nicotinic acid in combatting olive oil induced hyperlipaemia in rats fasted for 16 hours. The substances under test were administered orally two hours before the lipid load and the hyperlipaemia was induced by administering orally 20 ml/kg of olive oil.
Sacrifice took place three hours after the administration of the oil.

The test system of series [3] is colouring matter excreted in the bronchial liquid. The experiment in a line: Expectorant activity in mice (Nawatarih fluorescein method). Conditions: for ED50: Mus musculus, mice, oral, read-out: ED50 (dose capable of incrementing the excretion of the colouring matter by 50%). Format: in vivo. The protocol:
The expectorant activity of the compounds of the invention was evaluated by the method of Nawatarih (Kagoshima Daigaku Igaku Zasshi 27, 561, 1976) with fluorescein, according to which the increment of colouring matter excreted in the bronchial liquid is determined experimentally in mice. In the experiments the activity of 6,8-dimethyl-5,7,3',4'-tetrahydroxyflavanone was evaluated in comparison with that of bromhexine hydrochloride as reference standard. The results, given in Table 1, are expressed in ED50 (dose capable of incrementing the excretion of the colouring matter by 50%).

For the next series, the system named is amount of expectoration. Briefly: Expectorant activity in the rabbit (Perry and Boyd method). Format: in vivo. Particulars: Oryctolagus cuniculus, po. The protocol: The expectorant activity has also been monitored by the Perry and Boyd method (J. Pharmacol. Exp. Ther. 7 580, 1941), in which the direct amount of expectoration is determined in the rabbit.

Another series has as its system mice. Briefly: Acute toxicity in mice (oral route). It is filed as in vivo. Conditions: no deaths occurred at a dose rate of 3000 mg/kg. The source says: (§1) ACUTE TOXICITY (LD50 in mice (oral route)
Series [4] can be described thus: Acute toxicity in mice (oral route). Format: in vivo. Particulars: mouse, in vivo.
From the text: as §1

For series [5] the following is noted: known flavanones of extractive origin; cited from earlier work.

Counter-ions that a name gives are not always drawn.

Turning to `Cc1c(O)c(C)c2c(c1O)C(=O)CC(c1ccc(O)cc1)O2` (stereo not shown) [6,8-Dimethyl-5,7,4'-trihydroxyflavanone, 6,8-dimethyl-5,7,4'-trihydroxyflavanone], in series [1], the Bile flow came out at 5.25 ± 0.18 ml/4 h and the Total cholate was 15.23 ± 0.97 mg/4 h. For the same compound, in series [2] (50 mg/kg os), the Triglycerides is recorded as 198 ± 7 mg/100 ml and the NEFA turned out to be 702 ± 23 uEq/1. For the same compound, in series [2] (50 mg/kg os, vs controls), the “NEFA, change (in parentheses)” value is listed as -31.
Regarding `Cc1c(O)c(C)c2c(c1O)C(=O)CC(c1ccc(O)c(O)c1)O2` (stereo not shown) [6,8-dimethyl-5,7,3',4'-tetrahydroxyflavanone], the ED50 (usually the dose that gives a 50% effect, or the effect in half of the subjects) in series [3] was 78 mg/kg; with amount of expectoration it was 200 mg/kg. For the same compound, the therapeutic index result in series [3] (vs bromhexine, from ED50 and acute oral toxicity in mice) is given as “distinctly more favourable than that of bromhexine”. For the same compound, the LD0 in the series on mice is on record as 3000 mg/kg.
Regarding `Oc1ccccc1O` [(+) Catechol, catechol], in series [1], the Bile flow is on record as 4.13 ± 0.4 ml/4 h and the Total cholate was 13.03 ± 0.35 mg/4 h.
Consider `CN(Cc1cc(Br)cc(Br)c1N)C1CCCCC1` [Bromhexine HCl, bromhexine hydrochloride], for which, in series [3], the ED50 is 51 mg/kg. Also, the LD50 (in general, the dose expected to kill half of the subjects tested) in series [4] amounted to 2140 mg/kg.
`O=C(O)c1cccnc1` [Nicotinic acid, nicotinic acid]: in series [2] (173 mg/kg os), the Triglycerides is recorded as 71 ± 6 mg/100 ml and the NEFA is given as 709 ± 33 uEq/1. Further, in series [2] (173 mg/kg os, vs controls), the “NEFA, change (in parentheses)” value is listed as -30 and the “Triglycerides, change (in parentheses)” value is on record as -72.
For the compound `O=C1C[C@@H](c2ccc(O)c(O)c2)Oc2cc(O)cc(O)c21` [eriodictyol], the “expectorant and mucolytic activity” value in series [5] is “display expectorant and mucolytic activity”.
With `Cc1c(O)c(C)c2c(c1O)C(=O)C[C@@H](c1ccc(O)cc1)O2` [farrerol], the “expectorant and mucolytic activity” value in series [5] is “display expectorant and mucolytic activity”.
